Entries after “also recorded” stand apart in the source; their conditions may differ. Like-named read-outs stand apart in the source and are kept apart here. No end group written: not given here.
Legend:
[1] = test system: αT3-1 cells; details: cited from earlier work
[2] = test system: α-subunit in αT3-1 cells; details: ref Attardi and Winters 1998, Burrin, et al. 1998, Schomerus, et al. 1994, Tsujii, et al. 1995; cited from earlier work
[3] = test system: CRH receptors (CRH-R1 and CRH-R2) in αT3-1 cells; format: cell-based, murine; details: 1 mM IBMX, p<0.05; for inhibition of CRH-mediated cAMP increase: 10 μM α-helical CRH 9–41 or 1 μM astressin with 100 nM CRH, 3 min; for inhibition of UCN1-mediated cAMP increase: 10 μM α-helical CRH 9–41 or 1 μM astressin with 100 nM UCN1, 3 min
[4] = test system: PACAP receptor in LβT2 gonadotrope like cell line; details: LβT2 cells; ref Lariviere, et al. 2008; cited from earlier work
[5] = test system: αT3-1 cells; test: Total inositol phosphate levels; format: cell-based, murine; details: treatment alone; preliminary studies, unpublished data, A. Seasholtz
[6] = test system: CRH-R2 in αT3-1 cells; test: Antisauvagine; format: cell-based, murine; details: 1 μM antisauvagine, 15 min pretreatment; for effect of antisauvagine alone on cAMP: versus vehicle

## pituitary adenylyl cyclase activating polypeptide (HSDGIFTDSYSRYRKQMAVKKYLAAVLGKRYKQRVKNK-NH2; ends and bridges not checked; UniProt P18509 132-169, looked up) [PACAP]
[1]; ref Attardi and Winters 1998, Burrin, et al. 1998, Schomerus, et al. 1994, Tsujii, et al. 1995
  effect on cAMP levels: increase intracellular cAMP levels
[2]
  α-subunit transcriptional activity / mRNA / expression: increased transcriptional activity and steady state levels of α-subunit mRNA; also recorded: increased α-subunit expression

## astressin
[3]
  inhibition of CRH-mediated cAMP increase: completely blocked; also recorded: complete suppression; also recorded: completely inhibited; also recorded: significant repressions
  inhibition of UCN1-mediated cAMP increase: completely blocked; also recorded: complete suppression; also recorded: completely inhibited; also recorded: significant repressions

## alpha-helical CRH (9–41) [α-helical CRH 9–41]
[3]
  inhibition of CRH-mediated cAMP increase: reduced cAMP values to vehicle-treated levels
  inhibition of UCN1-mediated cAMP increase: reduced cAMP values to vehicle-treated levels
[3]; listed as α-helical CRH 9-41
  inhibition of CRH-mediated cAMP increase: completely blocked; also recorded: completely inhibited
  inhibition of UCN1-mediated cAMP increase: completely blocked; also recorded: completely inhibited

## gonadotropin- releasing hormone (QHWSYGLRPG; Gonadoliberin-1; UniProt P01148 24-33, looked up) [GnRH]
[1]; alone, ref McArdle and Counis 1996, McArdle, et al. 1994
  effect on cAMP levels: does not alter cAMP levels
[4]
  PACAP receptor phosphorylation by PKC: stimulating PACAP receptor phosphorylation by PKC
[5]
  effect on total inositol phosphate levels: dramatically increases total inositol phosphate levels

## antisauvagine
[6]; then 100 nM UCN1 3 min, partial block
  repression of UCN1-mediated cAMP increase: 75%
[6]; then 100 nM UCN3 3 min, p<0.05
  inhibition of UCN3-mediated cAMP increase: completely blocked
[6]
  effect of antisauvagine alone on cAMP: did not significantly differ from vehicle
[6]; listed as AS
  effect of antisauvagine alone on cAMP: no significant difference
